Experimental data reported in patent publication US5686637A, “Antifungal agent” (Merck & Co., Inc., priority 1995, dated 1997).
Converted amounts (≈) assume the structure as drawn.

Legend:
[1] = system: C. pseudotropicalis (MY 2099); assay: microbroth dilution assay (MIC/MFC), C. pseudotropicalis (MY 2099); type: cell-based, Candida pseudotropicalis; conditions: Kluyveromyces marxianus, C. pseudotropicalis (MY 2099)
Method: (§1) In the microbroth dilution assay, microorganisms were selected by streaking a yeast culture on Sabouraud dextrose agar (SDA) incubating for 24-48 hours at 35°-37° C., thereafter selected 3 to 5 characteristic colonies and transferring to a fresh plate and incubating under similar conditions. From the regrowth, 3 to 5 colonies were selected and suspended in. 10 milliliters of YM broth (Dffco) and incubated for 4 hours at 35°-37° C. shaking at 225 rpm. The 4 hour broth cultures were adjusted optically to 86% transmission resulting in a concentration of 1-5×10^6 cfu/ml which was further diluted 1:100 in YNBD (yeast nitrogen base with 1% dextrose) to obtain a concentration of 1-5×10^4 cfu/ml for use as inocula.
(§2) The test compound, Compound I, was prepared as a stock solution of 128 μg/ml in 20% methanol and 75 μl of said solution delivered to each well in column 1 of a 96-well, U-bottomed microtiter plate. The compounds in column 1 were then serially diluted two-fold to yield concentrations from 32 μg/ml to 0.15 μg/ml.
as §2, with “Amphotericin, the control” for “The test”, “compound,” for “compound, Compound I,”, “512” for “128”, “10% DMSO” for “20% methanol”, “128” for “32”, “0.6” for “0.15”
(§3) The plates containing the diluted compounds were then inoculated with 75 μl/well of the appropriate microorganism and incubated for 48 hours at 35°-37° C. with MIC (minimum inhibitory concentration) determinations carried out after 24 hours of incubation. Growth and sterility controls for each organism and sterility checks for the compounds also were carded out.
(§4) After recording MICs at 24 hours, the microtiter plates were shaken gently to resuspend the cells. A 1.5 μl sample was transferred from each well of the 96-well microtiter plate to a single reservoir inoculum plate containing SDA. The inoculated SDA and corresponding microtiter plates were incubated for 24 hours at 35°-37° C. For Cryptococus neoformans, SDA plates were inoculated at 48 hours after recording MICs and incubated 48 hours before reading the MFC. MFC is the lowest concentration of compound at which either no growth or growth of ≤4 colonies occur.

panel of fungi = assay: broth microdilution assay against a panel of fungi; type: cell-based; conditions: MIC and MFC
Method: as §1
as §2, with “μg/ml. […]” for “μg/ml.”
(§5) After recording MICs at 24 hours, the microtiter plates were shaken gently to resuspend the cells. […] For Cryptococus neoformans, SDA plates were inoculated at 48 hours after recording MICs and incubated 48 hours before reading the MFC. […]

[2] = system: Cryptococcus neoformans (MY 2062); assay: microbroth dilution assay (MIC), Cryptococcus neoformans (MY 2062); type: cell-based; conditions: 24 h; Cryptococcus neoformans (MY 2062); 35°-37° C.; SDA plates inoculated at 48 hours after recording MICs; read-out: Minimum Inhibitory Concentration (MIC)
Method: as §1
as §2, with “μg/ml. […]” for “μg/ml.”
as §5

[3] = system: filamentous fungi (AspergiIlus fiavus, Fusarium oxysporum, usalago zeae and the like); assay: agar plate inhibition zone test, filamentous fungi; type: cell-based; conditions: agar plates, methanol solutions, 28° C. or 37° C., 24 hours
Method: Compound I is also useful for inhibiting the growth of filamentous fungi. Such use may be illustrated in the following tests with AspergiIlus fiavus, Fusarium oxysporum, usalago zeae and the like. Inocula for filamentous fungi are prepared by scraping the surface of stock plates maintained on potato dextrose agar with a moistened sterile dacron swab. The spores and mycelia are then suspended in 10 milliliters of sterile potato dextrose broth and adjusted to 70 percent transmission at 660 nm. The samples to be tested for production of antifungal agent are applied directly to the agar plates as methanol solutions. When the sample to be tested is crude broth, it may be centrifuged prior to application. The assay plates are then incubated at either 28° C. or 37° C. for 24 hours. Following incubation, the inhibition zones are measured. Growths are also noted as to appearance.

A. fumigatus (5668) = assay: microbroth dilution assay (MIC), A. fumigatus (5668); type: cell-based; conditions: Aspergillus fumigatus; A. fumigatus (5668); 24 h, 35°-37° C.; read-out: Minimum Inhibitory Concentration (MIC)
Method: as §1
as §2, with “μg/ml. […]” for “μg/ml.”
as §5

[4] = system: Saccharomyces cerevisiae (MY 2140); assay: microbroth dilution assay (MIC/MFC), Saccharomyces cerevisiae (MY 2140); type: cell-based; conditions: Saccharomyces cerevisiae (MY 2140)
Method: as §1, §2
as §2, with “Amphotericin, the control” for “The test”, “compound,” for “compound, Compound I,”, “512” for “128”, “10% DMSO” for “20% methanol”, “128” for “32”, “0.6” for “0.15”
as §3, §4

C. albicans (CA2) = assay: microbroth dilution assay (MIC/MFC), C. albicans (CA2); type: cell-based; conditions: Candida albicans, C. albicans (CA2)
Method: as §1, §2
as §2, with “Amphotericin, the control” for “The test”, “compound,” for “compound, Compound I,”, “512” for “128”, “10% DMSO” for “20% methanol”, “128” for “32”, “0.6” for “0.15”
as §3, §4

[5] = system: Candida albicans (MY 1055); assay: microbroth dilution assay (MIC/MFC), Candida albicans (MY 1055); type: cell-based; conditions: Candida albicans (MY 1055)
Method: as §1, §2
as §2, with “Amphotericin, the control” for “The test”, “compound,” for “compound, Compound I,”, “512” for “128”, “10% DMSO” for “20% methanol”, “128” for “32”, “0.6” for “0.15”
as §3, §4

[6] = system: Aspergillus fumigatus (MF 4839); assay: microbroth dilution assay (MIC), Aspergillus fumigatus (MF 4839); type: cell-based; conditions: Aspergillus fumigatus (MF 4839); 24 h, 35°-37° C.; read-out: Minimum Inhibitory Concentration (MIC)
Method: as §1
as §2, with “μg/ml. […]” for “μg/ml.”
as §5

C. glabrata (MY1381) = assay: microbroth dilution assay (MIC/MFC), C. glabrata (MY1381); type: cell-based; conditions: Nakaseomyces glabratus, C. glabrata (MY1381)
Method: as §1, §2
as §2, with “Amphotericin, the control” for “The test”, “compound,” for “compound, Compound I,”, “512” for “128”, “10% DMSO” for “20% methanol”, “128” for “32”, “0.6” for “0.15”
as §3, §4

C. topicalis (MY1012) = assay: microbroth dilution assay (MIC/MFC), C. topicalis (MY1012); type: cell-based; conditions: C. topicalis (MY1012)
Method: as §1, §2
as §2, with “Amphotericin, the control” for “The test”, “compound,” for “compound, Compound I,”, “512” for “128”, “10% DMSO” for “20% methanol”, “128” for “32”, “0.6” for “0.15”
as §3, §4

C. albicans (CLY539) = assay: microbroth dilution assay (MIC/MFC), C. albicans (CLY539); type: cell-based; conditions: Candida albicans, C. albicans (CLY539)
Method: as §1, §2
as §2, with “Amphotericin, the control” for “The test”, “compound,” for “compound, Compound I,”, “512” for “128”, “10% DMSO” for “20% methanol”, “128” for “32”, “0.6” for “0.15”
as §3, §4

[7] = system: C. guillermondii (MY 1019); assay: microbroth dilution assay (MIC/MFC), C. guillermondii (MY 1019); type: cell-based; conditions: C. guillermondii (MY 1019)
Method: as §1, §2
as §2, with “Amphotericin, the control” for “The test”, “compound,” for “compound, Compound I,”, “512” for “128”, “10% DMSO” for “20% methanol”, “128” for “32”, “0.6” for “0.15”
as §3, §4

C. tropicalis (MY1124) = assay: microbroth dilution assay (MIC/MFC), C. tropicalis (MY1124); type: cell-based; conditions: Candida tropicalis, C. tropicalis (MY1124)
Method: as §1, §2
as §2, with “Amphotericin, the control” for “The test”, “compound,” for “compound, Compound I,”, “512” for “128”, “10% DMSO” for “20% methanol”, “128” for “32”, “0.6” for “0.15”
as §3, §4

[8] = system: C. parapsilosis (MY 1010); assay: microbroth dilution assay (MIC/MFC), C. parapsilosis (MY 1010); type: cell-based; conditions: Lodderomyces parapsilosis, C. parapsilosis (MY 1010)
Method: as §1, §2
as §2, with “Amphotericin, the control” for “The test”, “compound,” for “compound, Compound I,”, “512” for “128”, “10% DMSO” for “20% methanol”, “128” for “32”, “0.6” for “0.15”
as §3, §4

[9] = 24 h, 35°-37° C., read-out: Minimum Inhibitory Concentration (MIC)
[10] = no growth or ≤4 colonies on SDA after 24 h, read-out: Minimum Fungicidal Concentration (MFC)

## CCCCCCCCCCC(C)C(O)C(C)/C=C(C)/C=C(\C)C(=O)C(C)/C=C(\C)C(=O)OC(CO)C(O)C(O)C(=O)O (stereo not shown) [Compound I]
[1]; [9]
  MIC: 1 µg/mL (≈ 1.68 µM)
[1]; [10]
  MFC: 1 µg/mL (≈ 1.68 µM)
Panel of fungi
  effective concentrations against a panel of fungi compared with amphotericin B: effective at concentrations comparable to an established antifungal agent, amphotericin B
[2]
  MIC: 2 µg/mL (≈ 3.35 µM)
[3]
  inhibition of growth of fungal organisms (inhibition zones): effectively inhibit growth of the fungal organisms
A. fumigatus (5668)
  MIC: > 32 µg/mL
[4]; [9]
  MIC: 4 µg/mL (≈ 6.7 µM)
[4]; [10]
  MFC: 4 µg/mL (≈ 6.7 µM)
C. albicans (CA2); [9]
  MIC: 2 µg/mL (≈ 3.35 µM)
C. albicans (CA2); [10]
  MFC: 2 µg/mL (≈ 3.35 µM)
[5]; [9]
  MIC: 2 µg/mL (≈ 3.35 µM)
[5]; [10]
  MFC: 2 µg/mL (≈ 3.35 µM)
[6]
  MIC: > 32 µg/mL
C. glabrata (MY1381); [9]
  MIC: 4 µg/mL (≈ 6.7 µM)
C. glabrata (MY1381); [10]
  MFC: 4 µg/mL (≈ 6.7 µM)
C. topicalis (MY1012); [9]
  MIC: 1 µg/mL (≈ 1.68 µM)
C. topicalis (MY1012); [10]
  MFC: 0.5 µg/mL (≈ 0.838 µM)
C. albicans (CLY539); [9]
  MIC: 2 µg/mL (≈ 3.35 µM)
C. albicans (CLY539); [10]
  MFC: 2 µg/mL (≈ 3.35 µM)
[7]; [9]
  MIC: 4 µg/mL (≈ 6.7 µM)
[7]; [10]
  MFC: 16 µg/mL (≈ 26.8 µM)
C. tropicalis (MY1124); [9]
  MIC: 2 µg/mL (≈ 3.35 µM)
C. tropicalis (MY1124); [10]
  MFC: 2 µg/mL (≈ 3.35 µM)
[8]; [9]
  MIC: 2 µg/mL (≈ 3.35 µM)
[8]; [10]
  MFC: 2 µg/mL (≈ 3.35 µM)
